What is called IC50 is the concentration that inhibits the measured activity by half.

Consider one molecule from US9884863B2, “STAT3 inhibitor” (Board of Regents, The University of Texas System, priority 2013, dated 2018).

Series [1] is classed as in vivo. Conditions: oral gavage 14 days; HJC0152 25 mg/kg, niclosamide 75 mg/kg.
Method: Female nude mice at 4 to 6 wk of age were obtained from MDACC ERO facility. The mice were maintained in a barrier unit with 12 hours light-dark switch room and all materials were autoclaved. Freshly harvested MDA-MB-231 cells (2.5×10^6 cells per mouse, resuspended in 100 μl PBS) were injected into the 3rd mammary fat pad of the mice, and then mice were randomly assigned into control and treatment groups (≧6 mice per group). Treatment started when the xenograft mammary tumors reaches a volume of 200 mm^3. […] Mice were monitored daily for general health conditions (body weight, fur coat condition and posture) and toxicity (hair loss, skin rash, abdominal distension). […] Tumor volume was calculated as V=W^2×L/2, where L=longer diameter (mm) and W=width of short diameter (mm). […]
Female nude mice were obtained from MDACC and were used for orthotopic tumor studies at 4 to 6 weeks of age. […] Body weights and tumors volume were measured daily and tumor volume was calculated according to the formula V=0.5×L×W^2, where L=length (mm) and W=width (mm).
Twenty-two female nude mice (8 wks of age) were obtained from MDACC ERC Center. […] Body weights and tumors volume were measured daily and tumor volume calculated using the formula V=0.5×L×W^2, where L=length (mm) and W=width (mm) of xenograft tumors. Signs of toxicity were recorded individually. […]
The next series deals with AsPC1. As to the kind of experiment: MTS cell proliferation assay, AsPC1. The series is classed as cell-based, human. The settings on record: Homo sapiens, ASPC1, 72 h, read-out: IC50 AsPC1 (Table 4). The procedure, abridged: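 Cells seeded at 2×10^3 cells/well and exposed 72 h to DMSO or 0.01–100 μM STAT3 inhibitor, quadruplicate wells per concentration. Proliferation read by MTS reduction, OD 550 nm after 1 h at 37 °C.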

For the next series, the system named is MDA-MB-231 cells. As to the kind of experiment: Apoptosis assay (annexin V, flow cytometry). It is filed as cell-based, human. The settings on record: dose-dependent; Example 3 numbering. The method, then:
Cell Cycle Assay and Apoptosis Assay: Cell cycle and apoptosis kits (#MCH100106 and #MCH100105, Millipore, Mass.) were used. […] 24 and 48 h after drug treatment, both adherent and floating cells were collected, washed once with PBS and fixed in cold ethanol for at least 4 h before cell cycle analysis. The fixed cells were then washed twice with PBS and resuspended in 200 μL cell cycle detection reagent, incubated for 30 minutes in dark at room temperature. Cell cycle distribution was measured by the Muse Cell Analyzer with Muse™ Cell Cycle. Similarly, MDA-MB-231 cells with the same treatments were prepared for apoptosis assay. After washing with PBS, resuspended cells were incubated with 100 μL PBS containing 1% BSA and 100 μL Annexin V and dead cell detection reagent in dark for 20 minutes at room temperature. Apoptosis was measured immediately using the Muse Cell Analyzer with the Muse™ Apoptosis Program.

Series [2] concerns MDA-MB-231 xenograft tumors. As to the kind of experiment: MDA-MB-231 xenograft tumor growth in nude mice. The series is classed as in vivo. The settings on record: oral gavage daily for 14 days.
The test system of a further series is MCF-7. Description: MTS cell proliferation assay, MCF-7. The series is classed as cell-based, human. The settings on record: Homo sapiens, MCF7, 72 h, read-out: IC50 MCF-7 (Table 4). A digest of the protocol:
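MCF-7 human breast cancer cells were exposed to test compounds at a range of concentrations, then proliferation was measured with the MTS reagent from Promega's CellTiter 96 AQueous Non-Radioactive Cell Proliferation Assay kit. After 1 hr at 37° C., OD at 550 nm was read on a 96-well iMark Microplate Absorbance Reader, with quadruplicate wells per concentration.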

Series [3] deals with MDA-MB-231 and MDA-MB-468 cells. Description: Colony formation assay. Conditions: 15 days, starting at 0.625 μM. The series is classed as cell-based, human. On the procedure:
Colony Formation Assay: MDA-MB-468 and MDA-MB-231 cells were seeded in 6-well plates with a density of 800-3000 cells/well, respectively. […] The culture media with the compounds were changed every 72 h. After two weeks, the wells were washed twice with PBS buffer and 2 mL of 0.01% crystal violet staining buffer was added and incubated for 10 min. The wells were then washed with PBS for 5 min for three times, and allowed to dry. Photographs were then taken and the density of the entire culture well area was digitally measured using the GelCount™ instrument (Oxford Optronix, UK). Experiments were performed in triplicate and the density data were analyzed with one-way ANOVA using GraphPad Prizm 6 software. Error bars represent standard deviation.

Series [4] deals with STAT3 and pSTAT3 in MDA-MB-231 xenograft tumors. Description: IHC and Western blot of xenograft tumors. The series is classed as in vivo, mice. Conditions: oral gavage 14 days. The text has this: Immunohistochemistry (IHC): Paraffin blocks of the collected tissue were sectioned into 4 μm thickness and stained with H&E as a reference. All slides were subjected to phospho-STAT3 (Y705) IHC with ABC staining method. Rabbit or mouse IgG ABC kit was purchased from Vector Laboratories (Burlingame, Calif., USA) and ABC staining reagents were purchased from Sigma Aldrich (Louis, Mo., USA). PBS was used instead of primary antibody as a negative control.
(In general: A western blot detects proteins with antibodies after separation by electrophoresis.)

In the case of `O=C(Nc1ccc([N+](=O)[O-])cc1Cl)c1cc(Cl)ccc1O` [niclosamide, reference compound], in series [1], the “toxicity signs in treated mice” value is reported as “No toxicity signs”. Also, the IC50 was 1470 nM in the series with AsPC1 and 1060 nM with MCF-7. In addition, in the series on MDA-MB-231 cells, the “apoptosis, annexin V (Example 3)” value was “activated apoptosis”. Also, the “reduction in tumor growth, 75 mg/kg” value in series [2] amounted to 55%. Besides, the colony formation entry in series [3] is recorded as “significant suppression of colony formation”. Also, the “STAT3 and pSTAT3 (Y705 and S727) in tumor lysates, Western blot” value in series [4] is given as “decreased”.
